# In patent US20230021483A1, “[…] […] METHOD AND CLASSIFICATION OF PHARMACEUTICAL COMPONENTS BY USING TRANSCRIPTOMES” (National Institutes of Biomedical Innovation, Health and …, priority 2016, published 2023):
# System: preferentially upregulated genes in LV, SP, LN
# Test: Z-score-based differential gene expression analysis (adjuvant group- or adjuvant-associated genes, 40 module mapping, TargetMine annotation)
# Assay type: in vivo, C57BL/6 mice
# Conditions: for Adar 1425405_a_at (Group G1, Modules 20) / Adar 1434268_at (Group G1, Modules 20) / Ddx58 1436562_at (Group G1, Modules 20) / Ddx58 1456890_at (Group G1, Modules 20) / Eif2ak2 1422005_at (Group G1, Modules 20) / G3bp2 1421323_a_at (Group G1, Modules 20) / Gm9706///Isg15 1431591_s_at (Group G1, Modules 20) / H2-T10///H2-T22///H2-T9 1449875_s_at (Group G1, Modules 20) / Ifih1 1426276_at (Group G1, Modules 20) / Ifit1 1450783_at (Group G1, Modules 20) / Ifit3 1449025_at (Group G1, Modules 20) / Irf7 1417244_a_at (Group G1, Modules 20) / Irgm1 1418825_at (Group G1, Modules 20) / Mndal 1426906_at (Group G1, Modules 20) / Pml 1448757_at (Group G1, Modules 20) / Pml 1456103_at (Group G1, Modules 20) / Rnf213 1455500_at (Group G1, Modules 20) / Rsad2 1436058_at (Group G1, Modules 20) / Shisa5 1423986_a_at (Group G1, Modules 20) / Shisa5 1437503_a_at (Group G1, Modules 20) / Stat1 1450033_a_at (Group G1, Modules 20) / Stat1 1450034_at (Group G1, Modules 20) / Tdrd7 1426716_at (Group G1, Modules 20) / Tor1aip2 1418115_s_at (Group G1, Modules 20) / Tor1aip2 1418116_at (Group G1, Modules 20) / Tor1aip2 1435526_at (Group G1, Modules 20) / Trim12a 1437432_a_at (Group G1, Modules 20) / Uba7 1426970_a_at (Group G1, Modules 20): LV
# Outline: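 Per-sample fold-change values converted to gene-wise z-scores within each organ's data set, then triplicate z-scores summed per adjuvant. Genes with summed score >3 taken as preferentially expressed; gene groups defined by combined per-adjuvant z-score thresholds (z>1 to z>3) specific to each organ.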
substance,measurement,setting,value
"K3: B class CpG ODN (ATCGACTCTCGAGCGTTCTC), TLR9 ligand (chemistry not given here)","z sum, 1444615_x_at Runx1t1","ID, LN, Module#(LN) 1",−2.11
same,"z sum, 1420894_at Tgfbr1","ID, LN, Module#(LN) 3",−2.14
same,"z sum, 1460069_at Smc6","ID, LN, Module#(LN) 7",−3.53
same,"z sum, 1440371_at ---","ID, LN, Module#(LN) 8",−1.24
same,"z sum, 1456346_at ---","ID, LN, Module#(LN) 9",−2.13
same,"z sum, 1425105_at Rbp3","ID, LN, Module#(LN) 10",−2.11
same,"z sum, 1455796_x_at Olfm1","ID, LN, Module#(LN) 11",−1.44
same,"z sum, 1443302_at ---","ID, LN, Module#(LN) 12",−2.78
same,"z sum, 1442518_at C030044O21Rik","ID, LN, Module#(LN) 14",−1.58
same,"z sum, 1419486_at Foxc1","ID, LN, Module#(LN) 19",−0.76
same,"z sum, 1441344_at Erlin1","ID, LN, Module#(LN) 21",−2.63
same,"z sum, 1423611_at Alpl","ID, LN, Module#(LN) 24",−1
same,"z sum, 1448179_at Usmg5","ID, LN, Module#(LN) 24",−2.02
same,"z sum, 1458457_at ---","ID, LN, Module#(LN) 26",−0.33
same,"z sum, 1450377_at Thbs1","ID, LN, Module#(LN) 28",−2.87
same,"z sum, 1443853_x_at Sfmbt1","ID, LN, Module#(LN) 32",−2.59
same,"z sum, 1443392_at Trpv1","ID, LN, Module#(LN) 33",−1.04
same,"z sum, 1440475_at AW011738","ID, LN, Module#(LN) 36",−2.36
same,"z sum, 1416380_at Mov10","ID, LN, Module#(LN) 37",−2.43
same,"z sum, 1421008_at Rsad2","ID, LN, Module#(LN) 37",−1.42
same,"z sum, 1421009_at Rsad2","ID, LN, Module#(LN) 37",−0.76
same,"z sum, 1424339_at Oasl1","ID, LN, Module#(LN) 37",−0.5
same,"z sum, 1426013_s_at Plekha4","ID, LN, Module#(LN) 37",−1.53
same,"z sum, 1436058_at Rsad2","ID, LN, Module#(LN) 37",−0.71
same,"z sum, 1436472_at Slfn9","ID, LN, Module#(LN) 37",−2
same,"z sum, 1447241_at ---","ID, LN, Module#(LN) 37",−2.6
same,"z sum, 1416039_x_at Cyr61","ID, LN, Module#(LN) 39",−1.58
same,"z sum, 1418191_at Usp18","ID, LN, Module#(LN) 40",−0.03
same,"z sum, 1418293_at Ifit2","ID, LN, Module#(LN) 40",−0.49
same,"z sum, 1418580_at Rtp4","ID, LN, Module#(LN) 40",−1
same,"z sum, 1419603_at Ifi204","ID, LN, Module#(LN) 40",−1.28
same,"z sum, 1421911_at Stat2","ID, LN, Module#(LN) 40",−0.43
same,"z sum, 1422006_at Eif2ak2","ID, LN, Module#(LN) 40",−1.95
same,"z sum, 1422141_s_at Csprs///Gm15433///Gm2666///Gm7609///LOC100041903///LOC100503923","ID, LN, Module#(LN) 40",−1.36
same,"z sum, 1423555_a_at Ifi44","ID, LN, Module#(LN) 40",−1.43
same,"z sum, 1424444_a_at 1600014C10Rik","ID, LN, Module#(LN) 40",−0.85
same,"z sum, 1424607_a_at Gm4354","ID, LN, Module#(LN) 40",−0.89
same,"z sum, 1424609_a_at Cwc22///Gm4354///Xdh","ID, LN, Module#(LN) 40",−2.76
same,"z sum, 1431095_a_at Herc6","ID, LN, Module#(LN) 40",−0.73
same,"z sum, 1432417_a_at Tspan2","ID, LN, Module#(LN) 40",−2.15
same,"z sum, 1439886_at ---","ID, LN, Module#(LN) 40",−1.19
same,"z sum, 1450403_at Stat2","ID, LN, Module#(LN) 40",−1.07
same,"z sum, 1451777_at Ddx60","ID, LN, Module#(LN) 40",0.163
same,"z sum, 1452349_x_at Ifi205///Mnda","ID, LN, Module#(LN) 40",−1.48
same,"z sum, 1453196_a_at Oasl2","ID, LN, Module#(LN) 40",−1.27
same,"z sum, 1453299_a_at Pnp///Pnp2","ID, LN, Module#(LN) 40",−0.78
same,"z sum, 1453757_at Herc6","ID, LN, Module#(LN) 40",−0.2
same,"z sum, 1456164_at AW011738","ID, LN, Module#(LN) 40",−2.08
same,"z sum, 1457035_at Al607873","ID, LN, Module#(LN) 40",−0.26
same,"Adar 1425405_a_at (Group G1, Modules 20)","ID, sample x1",−0.3
same,"Adar 1434268_at (Group G1, Modules 20)","ID, sample x1",−0.6
same,"Ddx58 1436562_at (Group G1, Modules 20)","ID, sample x1",−0.3
same,"Ddx58 1456890_at (Group G1, Modules 20)","ID, sample x1",−0.4
same,"Eif2ak2 1422005_at (Group G1, Modules 20)","ID, sample x1",−0.5
same,"G3bp2 1421323_a_at (Group G1, Modules 20)","ID, sample x1",−0.4
same,"Gm9706///Isg15 1431591_s_at (Group G1, Modules 20)","ID, sample x1",−0.5
same,"H2-T10///H2-T22///H2-T9 1449875_s_at (Group G1, Modules 20)","ID, sample x1",−0.3
same,"Ifih1 1426276_at (Group G1, Modules 20)","ID, sample x1",−0.4
same,"Ifit1 1450783_at (Group G1, Modules 20)","ID, sample x1",−0.5
same,"Ifit3 1449025_at (Group G1, Modules 20)","ID, sample x1",−0.5
same,"Irf7 1417244_a_at (Group G1, Modules 20)","ID, sample x1",−0.4
same,"Irgm1 1418825_at (Group G1, Modules 20)","ID, sample x1",−0.5
same,"Mndal 1426906_at (Group G1, Modules 20)","ID, sample x1",−0.3
same,"Pml 1448757_at (Group G1, Modules 20)","ID, sample x1",−0.4
same,"Pml 1456103_at (Group G1, Modules 20)","ID, sample x1",−0.5
same,"Rnf213 1455500_at (Group G1, Modules 20)","ID, sample x1",−0.5
same,"Rsad2 1436058_at (Group G1, Modules 20)","ID, sample x1",−0.5
same,"Shisa5 1423986_a_at (Group G1, Modules 20)","ID, sample x1",−0.5
same,"Shisa5 1437503_a_at (Group G1, Modules 20)","ID, sample x1",−0.5
same,"Stat1 1450033_a_at (Group G1, Modules 20)","ID, sample x1",−0.5
same,"Stat1 1450034_at (Group G1, Modules 20)","ID, sample x1",−0.4
same,"Tdrd7 1426716_at (Group G1, Modules 20)","ID, sample x1",−0.3
same,"Tor1aip2 1418115_s_at (Group G1, Modules 20)","ID, sample x1",−0.3
same,"Tor1aip2 1418116_at (Group G1, Modules 20)","ID, sample x1",−0.4
same,"Tor1aip2 1435526_at (Group G1, Modules 20)","ID, sample x1",−0.4
same,"Trim12a 1437432_a_at (Group G1, Modules 20)","ID, sample x1",−0.6
same,"Uba7 1426970_a_at (Group G1, Modules 20)","ID, sample x1",−0.2
same,"Adar 1425405_a_at (Group G1, Modules 20)","ID, sample x2",−0.7
same,"Adar 1434268_at (Group G1, Modules 20)","ID, sample x2",−0.5
same,"Ddx58 1436562_at (Group G1, Modules 20)","ID, sample x2",−0.4
same,"Ddx58 1456890_at (Group G1, Modules 20)","ID, sample x2",−0.4
same,"Eif2ak2 1422005_at (Group G1, Modules 20)","ID, sample x2",−0.5
same,"G3bp2 1421323_a_at (Group G1, Modules 20)","ID, sample x2",−0.5
same,"Gm9706///Isg15 1431591_s_at (Group G1, Modules 20)","ID, sample x2",−0.5
same,"H2-T10///H2-T22///H2-T9 1449875_s_at (Group G1, Modules 20)","ID, sample x2",−0.5
same,"Ifih1 1426276_at (Group G1, Modules 20)","ID, sample x2",−0.4
same,"Ifit1 1450783_at (Group G1, Modules 20)","ID, sample x2",−0.5
same,"Ifit3 1449025_at (Group G1, Modules 20)","ID, sample x2",−0.5
same,"Irf7 1417244_a_at (Group G1, Modules 20)","ID, sample x2",−0.4
same,"Irgm1 1418825_at (Group G1, Modules 20)","ID, sample x2",−0.6
same,"Mndal 1426906_at (Group G1, Modules 20)","ID, sample x2",−0.3
same,"Pml 1448757_at (Group G1, Modules 20)","ID, sample x2",−0.6
same,"Pml 1456103_at (Group G1, Modules 20)","ID, sample x2",−0.6
same,"Rnf213 1455500_at (Group G1, Modules 20)","ID, sample x2",−0.5
same,"Rsad2 1436058_at (Group G1, Modules 20)","ID, sample x2",−0.5
same,"Shisa5 1423986_a_at (Group G1, Modules 20)","ID, sample x2",−0.5
same,"Shisa5 1437503_a_at (Group G1, Modules 20)","ID, sample x2",−0.3
same,"Stat1 1450033_a_at (Group G1, Modules 20)","ID, sample x2",−0.5
same,"Stat1 1450034_at (Group G1, Modules 20)","ID, sample x2",−0.5
same,"Tdrd7 1426716_at (Group G1, Modules 20)","ID, sample x2",−0.6
same,"Tor1aip2 1418115_s_at (Group G1, Modules 20)","ID, sample x2",−0.3
same,"Tor1aip2 1418116_at (Group G1, Modules 20)","ID, sample x2",−0.5
same,"Tor1aip2 1435526_at (Group G1, Modules 20)","ID, sample x2",−0.5
same,"Trim12a 1437432_a_at (Group G1, Modules 20)","ID, sample x2",−0.5
same,"Uba7 1426970_a_at (Group G1, Modules 20)","ID, sample x2",−0.3
same,"Adar 1425405_a_at (Group G1, Modules 20)","IP, sample x1",−0.5
same,"Adar 1434268_at (Group G1, Modules 20)","IP, sample x1",−0.6
same,"Ddx58 1436562_at (Group G1, Modules 20)","IP, sample x1",−0.5
same,"Ddx58 1456890_at (Group G1, Modules 20)","IP, sample x1",−0.4
same,"Eif2ak2 1422005_at (Group G1, Modules 20)","IP, sample x1",−0.6
same,"G3bp2 1421323_a_at (Group G1, Modules 20)","IP, sample x1",−0.6
same,"Gm9706///Isg15 1431591_s_at (Group G1, Modules 20)","IP, sample x1",−0.5
same,"H2-T10///H2-T22///H2-T9 1449875_s_at (Group G1, Modules 20)","IP, sample x1",−0.2
same,"Ifih1 1426276_at (Group G1, Modules 20)","IP, sample x1",−0.4
same,"Ifit1 1450783_at (Group G1, Modules 20)","IP, sample x1",−0.5
